# Assays:
# Type in all cases: cell-based
# [1] = test system: p-Nrf2; experiment: Western blot, p-Nrf2 protein in nuclear fraction; conditions: HCT116 line; 5 μM
# Method: (§1) Cytosolic and nuclear extracts were prepared using a Nuclear/Cytosol Fractionation Kit (BioVision Research, USA). Cytosolic extracts (for NF-κBp65, NF-κBp50, COX-2, iNOS, STAT3, c-Myc, Bcl-xl, Nrf2, SOD, GSTP, EGFR, Akt, p-Akt, Keap1, IKKα/β and β-actin) or nuclear extracts (for NF-κBp65, NF-κBp50, STAT3, p-STAT3, Nrf2, p-Nrf2 and lamin) were separated on 7.5%, 10% or 12% SDS–PAGE slab gels. Then, the proteins were transferred to a nitrocellulose Immobilon-P membrane. After blocking for 2 h with 10% skimmed milk, proteins were incubated with primary antibodies against NF-κBp65, NF-κBp50, COX-2, iNOS, STAT3, p-STAT3, c-Myc, Bcl-xl, Nrf2, p-Nrf2, SOD, GSTP, EGFR, Akt, p-Akt, Keap1, IKKα/β, β-actin, and lamin. Alkaline phosphatase (AP)-labeled anti-rabbit IgG, anti-goat IgG, and anti-mouse IgG secondary antibodies (Bio-Rad Laboratories, USA), as well as horseradish peroxidase (HRP)-conjugated anti-mouse IgG (Boster Bio, USA) secondary antibodies were used in the staining reaction. Bands were visualized by the AP Conjugate Substrate Kit NBT/BCIP or the chemiluminescent HRP substrate of the Clarity ECL Kit (Bio–Rad Laboratories, USA). The amount of immunoreactive product in each lane was determined using a ChemiDoc Imaging System (Bio–Rad Laboratories, USA). Values were calculated as relative absorbance units (RQ) per mg of protein and expressed as a percentage of the control.
# [2] = test system: DLD-1 cells; experiment: Cell cycle distribution, PI staining, flow cytometry, DLD-1; conditions: 48 h, BAY 11-7082 5 µM, 5 in higher (doubled) concentration
# Method: The analysis of the cell cycle distribution was performed by propidium iodide (PI) staining. The addition of RNase A improved the specificity of PI binding to DNA. The Muse Cell Cycle Kit (Luminex, USA) and flow cytometric detection were performed with the Muse Cell Analyzer (Merck, Germany), according to the manufacturer’s protocol. Briefly, cells were seeded (2 × 10^5 cells per well) in 6-well plates and on the following day the analyzed compounds were added. Topotecan (Sigma-Aldrich, USA) was used as a positive control of cell cycle arrest. After 48 h cells were collected by trypsinization, fixed in cold 70% ethanol and stored at –20 °C. Then, fixed cells were collected and stained with PI, subjected to 30 min incubation at room temperature in the dark and analyzed by flow cytometry. Three independent experiments were performed. Data were analyzed by Muse 1.5 Analysis Software (Merck, Germany).
# [3] = test system: SOD; experiment: SOD expression (qRT-PCR mRNA, Western blot protein); conditions: HCT116 cells; 5 μM
# Method: as §1
# Total RNA from cells was isolated with the GeneMatrix Universal DNA/RNA/Protein Purification Kit (EurX, Poland). For the qRT-PCR analyses, the Maxima SYBR Green I/ROX qPCR Master Mix (2×) (Thermo Fisher Scientific, USA) and the thermal cycler LightCycler (Roche, Germany) were used. The protocol started with 5 min of enzyme activation at 95 °C, followed by 40–50 cycles at 95 °C for 15 s, 56 °C for 20 s, 72 °C for 40 s, and final elongation at 72 °C for 5 min. Melting curve analysis was used for amplicon verification. The expression levels of TATA-box-binding protein (TBP) and porphobilinogen deaminase (PBGD) were used to normalize the data. The Pfaffl comparative method was used to calculate fold change. […]
# [4] = test system: Nrf2; experiment: qRT-PCR, Nrf2 mRNA; conditions: 5 at 5 μM
# Method: (§2) Total RNA from cells was isolated with the GeneMatrix Universal DNA/RNA/Protein Purification Kit (EurX, Poland). For the qRT-PCR analyses, the Maxima SYBR Green I/ROX qPCR Master Mix (2×) (Thermo Fisher Scientific, USA) and the thermal cycler LightCycler (Roche, Germany) were used. The protocol started with 5 min of enzyme activation at 95 °C, followed by 40–50 cycles at 95 °C for 15 s, 56 °C for 20 s, 72 °C for 40 s, and final elongation at 72 °C for 5 min. Melting curve analysis was used for amplicon verification. The expression levels of TATA-box-binding protein (TBP) and porphobilinogen deaminase (PBGD) were used to normalize the data. The Pfaffl comparative method was used to calculate fold change. Primers were designed using Beacon Designer software (the sequences of primers used to analyze genes are listed in Table 2 of the supplementary materials).
# [5] = test system: GSTP; experiment: GSTP expression (qRT-PCR mRNA, Western blot protein); conditions: DLD-1 cells; 5 at 5 μM
# Method: as §1, with “control. […]” for “control.”
# [6] = test system: NF-κB p65; experiment: qRT-PCR, NF-κB p65 mRNA; conditions: DLD-1 cells; 5 μM
# Method: as §2
# [7] = test system: NF-κB p65; experiment: Western blot, NF-κB p65 protein level; conditions: 4 at 1 μM, vs control
# Method: as §1
# [8] = test system: STAT3; experiment: Western blot, STAT3 protein level; conditions: 4 at 1 μM
# Method: as §1
# [9] = test system: DLD-1 cells; experiment: Wound healing assay (cell migration); conditions: 24 h, 4 at standard concentration (1 μM), BAY 11-7082 5 µM
# Method: Cell migration was assessed by the wound healing assay. DLD-1 cells were seeded into 24-well plates (5 × 10^5 cells per well) and were grown overnight to reach confluency. A scratch was performed using a 10 μl tip, wells were rinsed twice with PBS buffer to remove detached cells, and fresh medium with reduced FBS concentration (0.5%) containing the tested compounds was added. Subsequently, representative microscopic photographs of scratch areas were taken by JuLI FL microscope (NanoEntek, South Korea) direct after the addition of compounds and after 24 h. Area covered by cells (%) was assessed using JuLI FL software and the difference in the coverage of the growth area by DLD-1 cells between 0 and 24 h time points was calculated for each well. The experiment was repeated three times. The relative effect of the tested compounds on cell migration was calculated by comparing the difference in cell coverage area between compound-treated cells and DMSO-vehicle control (tested compound [area 24 h − area 0 h] / DMSO-vehicle control [area 24 h − area 0 h]).
# [10] = test system: NF-κB p65; experiment: Transcription factor ELISA, NF-κB p65 binding to DNA; conditions: DLD-1 cells (context); 1, 4 at 1 μM; 2, 8 at 5 μM; vs control
# Method: To estimate NF-ΚB (p50 and p65 subunits) STAT3 and Nrf2 activation, enzymatic immunoassays with the Transcription Factor ELISA Kit (TransAM™NF-κB, TransAM™STAT3/TransAM™Nrf2, Active Motif, Carlsbad CA, USA) were used following the manufacturer’s protocol. Briefly, proper consensus-site double-strand oligonucleotides (NF-κB—5′-GGGACTTTCC-3′; STAT3-5’—TTCCCGGAA-3’; Nrf2-5ʹ—[…]-3ʹ) were immobilized on an ELISA plate and incubated for one hour with the nuclear extracts. The activated subunits bound to DNA were recognized with a specific primary antibody and detected with an HRP-conjugated secondary antibody. The number of subunits was determined by spectrophotometry at λ = 450 nm. The number of p50, and p65 subunits, STAT3, as well as the amount of Nrf2 contained in the DNA-binding complex, corresponded to the activated NF-κB, STAT3, or Nrf2 transcription factors.
# [11] = test system: IKKα/β; experiment: Western blot, IKKα/β protein in cytosolic fraction; conditions: HCT116 cells; 4 at 1 μM
# Method: as §1
Structure (SMILES),increase in the nuclear level of p-Nrf2 [1] [%],cell cycle distribution (in words) [2],levels of SOD mRNA and protein [3],increase in Nrf2 transcription ([4]; DLD-1 line) [%],increase in Nrf2 transcription ([4]; HCT116 line) [%],GSTP expression and protein levels [5],inhibitory effect on p65 subunit transcription [6],decrease of p65 level in the nuclear fraction ([7]; DLD-1 cells) [%],decrease of p65 level in the nuclear fraction ([7]; HCT116 cells) [%],"decrease in the nuclear level of STAT3 protein ([8]; DLD-1 cells, 2 at 5 μM) [%]",decrease in the nuclear level of STAT3 protein ([8]; HCT116 cells) [%],reduction of cell migration rate (wound healing) vs DMSO-treated cells [9],reduction of the binding of the p65 subunit to DNA [10] [%],"IKKα/β, cytosolic fraction [11]"
COc1cc(/C=C/C(=O)c2cc(Br)c(SC)c(OC)c2)ccc1SC [chalcone 5],85,slightly enriching S phase,increased levels of SOD mRNA and protein,77,45,significantly increased GSTP expression and protein levels,most potent inhibitory effect,,,,,,,
COc1cc(C(=O)/C=C/c2cccc(SC)c2)cc(Br)c1OC [chalcone 4],,,,,,,,22,26,21,22,approximately 15%,21,inactivation

# Source: article PMC9436958, “The synthesis of novel thioderivative chalcones and their influence on NF-κB, STAT3 and NRF2 signaling pathways in colorectal cancer cells” (Scientific Reports, 2022)
